Results reported in PubChem BioAssay AID248 (DTP/NCI, 2004).
Several values for one entry are separate records, joined by “and”; a condition that tells them apart may be missing. Identical values can stand only once. Toxic doses and inconclusive results are not listed. Cut-off read from the data, not from the text of the source: active = T/C of 150% or more; inactive = T/C below 125%.

Test system: L1210 leukemia ip in BDF1 mice, survival T/C
Experiment: NCI In Vivo Anticancer Drug Screen. Data for tumor model L1210 Leukemia (intraperitoneal) in B6D2F1 (BDF1) mice
Details: endpoint: mean survival time, higher = longer survival
In short: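 Tumor was transplanted into mice, which were then dosed with test compound or vehicle alone. Survival was recorded for each group, and the treated figure was expressed relative to the control figure.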

[1] = dose: 100.0 mg/kg/injection, schedule: Q01DX009 (ip), vehicle: saline
[2] = dose: 200.0 mg/kg/injection, schedule: Q01DX009 (ip), vehicle: saline
[3] = dose: 100.0 mg/kg/injection, schedule: Q01DX001 (ip), vehicle: saline
[4] = dose: 200.0 mg/kg/injection, schedule: Q01DX001 (ip), vehicle: saline
[5] = dose: 400.0 mg/kg/injection, schedule: Q01DX001 (ip), vehicle: saline
[6] = dose: 12.5 mg/kg/injection, schedule: Q04DX003 (ip), vehicle: saline
[7] = dose: 25.0 mg/kg/injection, schedule: Q04DX003 (ip), vehicle: saline
[8] = dose: 75.0 mg/kg/injection, schedule: Q01DX001 (ip), vehicle: carboxymethylcellulose (CMC)
[9] = dose: 150.0 mg/kg/injection, schedule: Q01DX001 (ip), vehicle: carboxymethylcellulose (CMC)
[10] = dose: 300.0 mg/kg/injection, schedule: Q01DX001 (ip), vehicle: carboxymethylcellulose (CMC)
[11] = dose: 100.0 mg/kg/injection, schedule: Q04DX002 (ip), vehicle: Klucel (hydroxypropylcellulose) (HPC)
[12] = dose: 200.0 mg/kg/injection, schedule: Q04DX002 (ip), vehicle: Klucel (hydroxypropylcellulose) (HPC)
[13] = dose: 400.0 mg/kg/injection, schedule: Q04DX002 (ip), vehicle: Klucel (hydroxypropylcellulose) (HPC)
[14] = dose: 100.0 mg/kg/injection, schedule: Q04DX002 (ip), vehicle: saline with Tween-80
[15] = dose: 200.0 mg/kg/injection, schedule: Q04DX002 (ip), vehicle: saline with Tween-80

Measured: T/C

Cn1cnc2c1c(=O)[nH]c(=O)n2C
inactive: dose: 100.0 mg/kg/injection, schedule: Q01DX009 (ip), vehicle: Klucel (hydroxypropylcellulose) (HPC) 93 % of control | [1] 95 % of control | dose: 200.0 mg/kg/injection, schedule: Q01DX009 (ip), vehicle: Klucel (hydroxypropylcellulose) (HPC) 86 % of control | [2] 92 % of control | dose: 400.0 mg/kg/injection, schedule: Q01DX009 (ip), vehicle: Klucel (hydroxypropylcellulose) (HPC) 89 % of control

CCN(c1ccccc1)C1CCCCC1=O (configuration not stated)
inactive: [3] 101 % of control | [4] 106 % of control | [5] 104 % of control

CC(C)c1ccc(/C=C2\CSC/C(=C/c3ccc(C(C)C)cc3)C2=O)cc1
inactive: [4] 95 % of control | [2] 91 % of control

Clc1ccc(CSC2=NCCN2)cc1
inactive: [6] 94 % of control | [7] 93 % of control | dose: 50.0 mg/kg/injection, schedule: Q04DX003 (ip), vehicle: saline 98 % of control

OC1CC2CCC1C2 (configuration not stated)
inactive: dose: 100.0 mg/kg/injection, schedule: Q01DX009 (ip), vehicle: saline with Tween-80 94 % of control | dose: 100.0 mg/kg/injection, schedule: Q04DX003 (ip), vehicle: saline with Tween-80 106 % of control | dose: 200.0 mg/kg/injection, schedule: Q01DX009 (ip), vehicle: saline with Tween-80 105 % of control | dose: 200.0 mg/kg/injection, schedule: Q04DX003 (ip), vehicle: saline with Tween-80 91 % of control | dose: 400.0 mg/kg/injection, schedule: Q01DX009 (ip), vehicle: saline with Tween-80 95 % of control | dose: 400.0 mg/kg/injection, schedule: Q04DX003 (ip), vehicle: saline with Tween-80 88 % of control

O=S(=O)(NCCBr)c1ccccc1
inactive: [8] 101 % of control | [9] 114 % of control | [10] 108 % of control

NC(CO)C(=O)O (configuration not stated)
inactive: dose: 100.0 mg/kg/injection, schedule: Q01DX001 (ip), vehicle: carboxymethylcellulose (CMC) 95 % of control | [3] 91 % of control and 104 % of control | dose: 200.0 mg/kg/injection, schedule: Q01DX001 (ip), vehicle: carboxymethylcellulose (CMC) 101 % of control | [4] 92 % of control and 101 % of control | dose: 400.0 mg/kg/injection, schedule: Q01DX001 (ip), vehicle: carboxymethylcellulose (CMC) 103 % of control | [5] 105 % of control and 95 % of control

COC(=O)C(=O)CC(=O)c1cccc([N+](=O)[O-])c1
inactive: [11] 103 % of control | [12] 95 % of control | [13] 95 % of control

O=C1c2cccc(Cl)c2C(=O)c2c(O)ccc(O)c21
inactive: [14] 87 % of control | [15] 97 % of control | dose: 400.0 mg/kg/injection, schedule: Q04DX002 (ip), vehicle: saline with Tween-80 97 % of control

O=C(Nc1ccccc1)C(Cl)(Cl)Cl
inactive: dose: 50.0 mg/kg/injection, schedule: Q01DX001 (ip), vehicle: other 104 % of control | dose: 100.0 mg/kg/injection, schedule: Q01DX001 (ip), vehicle: other 102 % of control | [11] 106 % of control | dose: 200.0 mg/kg/injection, schedule: Q01DX001 (ip), vehicle: other 102 % of control | [12] 92 % of control | dose: 400.0 mg/kg/injection, schedule: Q01DX001 (ip), vehicle: other 104 % of control | [13] 89 % of control

CC1=NN(c2cccc([N+](=O)[O-])c2)C(=O)C1
inactive: dose: 100.0 mg/kg/injection, schedule: Q01DX001 (ip), vehicle: saline with Tween-80 96 % of control | dose: 200.0 mg/kg/injection, schedule: Q01DX001 (ip), vehicle: saline with Tween-80 96 % of control | dose: 400.0 mg/kg/injection, schedule: Q01DX001 (ip), vehicle: saline with Tween-80 98 % of control

CNc1ccccn1
inactive: [8] 95 % of control | [9] 97 % of control | [10] 101 % of control

COC(=O)C[CH2][Pb]([c]1ccccc1)([c]1ccccc1)[c]1ccccc1
inactive: [14] 102 % of control | [15] 113 % of control

NC(c1ccccc1)C(O)c1ccccc1 (configuration not stated)
inactive: dose: 37.5 mg/kg/injection, schedule: Q04DX003 (ip), vehicle: saline 98 % of control | dose: 75.0 mg/kg/injection, schedule: Q04DX003 (ip), vehicle: saline 92 % of control | dose: 150.0 mg/kg/injection, schedule: Q04DX003 (ip), vehicle: saline 101 % of control

COC(=O)[C@H]1[C@H]2C[C@@H]3c4[nH]c5cc(OC)ccc5c4CCN3C[C@H]2C[C@@H](OC(=O)c2cc(OC)c(OC)c(OC)c2)[C@@H]1OC
inactive: dose: 1.0 mg/kg/injection, schedule: Q01DX Z (ip), vehicle: carboxymethylcellulose (CMC) 100 % of control | dose: 1.56 mg/kg/injection, schedule: Q01DX001 (ip), vehicle: other 100 % of control | dose: 1.56 mg/kg/injection, schedule: Q01DX009 (ip), vehicle: saline 111 % of control | dose: 1.56 mg/kg/injection, schedule: Q04DX003 (ip), vehicle: other 95 % of control | dose: 2.0 mg/kg/injection, schedule: Q01DX Z (ip), vehicle: carboxymethylcellulose (CMC) 100 % of control | dose: 3.12 mg/kg/injection, schedule: Q01DX001 (ip), vehicle: other 96 % of control | dose: 3.12 mg/kg/injection, schedule: Q01DX009 (ip), vehicle: saline 109 % of control | dose: 3.12 mg/kg/injection, schedule: Q04DX003 (ip), vehicle: other 95 % of control | dose: 5.0 mg/kg/injection, schedule: Q01DX001 (ip), vehicle: other 92 % of control | dose: 5.25 mg/kg/injection, schedule: Q01DX009 (ip), vehicle: other 98 % of control | dose: 6.25 mg/kg/injection, schedule: Q01DX001 (ip), vehicle: other 96 % of control | dose: 6.25 mg/kg/injection, schedule: Q01DX009 (ip), vehicle: saline 101 % of control | dose: 6.25 mg/kg/injection, schedule: Q04DX003 (ip), vehicle: other 115 % of control | dose: 6.25 mg/kg/injection, schedule: Q04DX003 (ip), vehicle: saline 90 % of control | dose: 9.2 mg/kg/injection, schedule: Q04DX003 (ip), vehicle: other 101 % of control | dose: 10.0 mg/kg/injection, schedule: Q01DX001 (ip), vehicle: other 100 % of control | dose: 12.5 mg/kg/injection, schedule: Q01DX001 (ip), vehicle: carboxymethylcellulose (CMC) 103 % of control | dose: 12.5 mg/kg/injection, schedule: Q01DX009 (ip), vehicle: saline 104 % of control | [6] 108 % of control | dose: 14.0 mg/kg/injection, schedule: Q04DX003 (ip), vehicle: other 88 % of control | dose: 20.0 mg/kg/injection, schedule: Q01DX001 (ip), vehicle: other 97 % of control | dose: 21.0 mg/kg/injection, schedule: Q04DX003 (ip), vehicle: other 95 % of control | dose: 25.0 mg/kg/injection, schedule: Q01DX009 (ip), vehicle: saline 92 % of control | [7] 103 % of control | dose: 40.0 mg/kg/injection, schedule: Q01DX001 (ip), vehicle: other 97 % of control | dose: 80.0 mg/kg/injection, schedule: Q01DX001 (ip), vehicle: other 94 % of control

O=[As](O)(O)c1ccccc1N=Nc1ccccc1
inactive: dose: 75.0 mg/kg/injection, schedule: Q01DX009 (ip), vehicle: Klucel (hydroxypropylcellulose) (HPC) 100 % of control | dose: 150.0 mg/kg/injection, schedule: Q01DX009 (ip), vehicle: Klucel (hydroxypropylcellulose) (HPC) 87 % of control | dose: 300.0 mg/kg/injection, schedule: Q01DX009 (ip), vehicle: Klucel (hydroxypropylcellulose) (HPC) 108 % of control

CCOC1OCN(C)CC1(C)C (configuration not stated)
inactive: dose: 50.0 mg/kg/injection, schedule: Q01DX009 (ip), vehicle: saline 93 % of control | [1] 109 % of control | dose: 100.0 mg/kg/injection, schedule: Q04DX003 (ip), vehicle: saline 101 % of control | dose: 132.0 mg/kg/injection, schedule: Q01DX009 (ip), vehicle: saline sonified 113 % of control | dose: 200.0 mg/kg/injection, schedule: Q01DX009 (ip), vehicle: saline sonified 118 % of control | dose: 200.0 mg/kg/injection, schedule: Q04DX003 (ip), vehicle: saline 97 % of control
